Laboratory results published in publication PMC6196238, “Novobiocin, a Newly Found TRPV1 Inhibitor, Attenuates the Expression of TRPV1 in Rat Intestine and Intestinal Epithelial Cell Line IEC-6” (Frontiers in Pharmacology, 2018).

Experiments:
[1] = tested on: rat intestine (jejunum, ileum, colon); experiment: Ussing chamber intestinal permeability of CAP; type: in vitro ADME; conditions: for fold-inhibition factor of CAP Papp: vs CAP only
Procedure: NOVO was also prepared in HEPES buffer to yield final concentration at 5, 10, 25, 50, 100, and 200 μM. […] Different portions of the rat intestine were excised and flushed with HEPES buffer, including jejunum (after the first 5 cm of the top of small intestine), ileum (the distal part of small intestine) and colon (proximal to cecal-colonic junction), and incubated in the ice-cold HEPES buffer. Next, 3–4 cm of the intestine was clipped, and the serosa was removed rapidly on an ice-cold glass. The intestinal segments were fixed in the Ussing chamber. Finally, 7 mL of HEPES buffer was added to the receiving side while an equal volume of drug solution to the dosing side. […] All the samples were kept at -20°C till HPLC analysis.
In brief, samples were injected into a C18 column (3.5 μm, 2.1 mm × 100 mm). An aliquot of 20 μL of sample solutions were injected.

[2] = tested on: IEC-6/TRPV1+ cells; experiment: MTT cell viability assay; conditions: for Cell Survival: IEC-6/TRPV1+
Procedure: (§1) The rat intestinal epithelial cell line IEC-6, purchased from Kunming Institute of Zoology. CAS, was cultured in Dulbecco’s Modified Eagle’s Medium (DMEM) (Gibco, Grand Island, NY, United States) supplemented with 10% fetal bovine serum (FBS; Gibco) at 37°C in a humidified atmosphere of 5% CO2.
(§2) The plasmid pENTER containing the TRPV1 coding sequence NM_080704 was used as template in a PCR with the following primers: 5′-[…]-3′ (forward) and 5′-[…] (reverse). And synthetic small interfering RNA (siRNA) specific for rat TRPV1 (TRPV1-siRNA) was purchased from Vigene Bioscience (Rockville, MD, United States) with the following sequences: 5′-[…]-3′ (forward) and 5′-[…]-3′ (reverse) for TRPV1-siRNA. The transfecting process was conducted by using the lipofectamin® 3000 transfection reagent (Invitrogen^TM, Carlsbad, CA, United States), according to the manufacturer’s protocol.
(§3) The transfected cells were plated in 96-well plates. […] Optical density at 490 nm was used to evaluate cell viability in 96-well plates.

[3] = tested on: IEC-6/TRPV1- cells; experiment: MTT cell viability assay
Procedure: as §1, §2, §3

[4] = tested on: TRPV1; experiment: TRPV1 mRNA and protein expression in rat intestine after oral administration (qRT-PCR, western blot); type: in vivo
Procedure: Forty male SD rats (200–250 g) were used for orally administered experiment. The animals were arbitrarily distributed in eight different groups and each group was treated with its respective dose of calculated amount. Group I was orally administered 0.9% normal saline (5 mL⋅kg^-1). Group II labeled as positive control was orally administered with 10 μM RR (5 mL⋅kg^-1). Rats of Group […] were treated with 5 mL⋅kg^-1 of NOVO dissolved in 0.9% normal saline (5, 10, 25, and 50 μM, respectively). The animals were orally administered twice a day for 2 weeks. After another 14 days, animals were sacrificed and then the jejunum, ileum and colon tissue were excised. The intestinal tissues were frozen in liquid nitrogen, and then stored at -80°C for protein or ribonucleic acid (RNA) isolation.
qRT-PCR was performed to evaluate TRPV1 mRNA expression after NOVO treatment. The total RNA of the cells or tissues was isolated with an RNA isolation plus kit (Takara Shuzo, Kyoto, Japan), according to the manufacturer’s protocol. The quality of RNA was confirmed by agarose gel electrophoresis and an optical density measurement of A260/A280. The cDNAs were prepared using SYBR® Premix Ex Taq^TMII (Takara Shuzo, Kyoto, Japan) and the following primers: 5′-[…]-3′ and 5′-[…]-3′ for TRPV1, and 5′-[…]-3′, 5′-[…]-3′ for GAPDH were carried out by using the LightCycler480 System. The relative expression was calculated by the 2^-ΔΔC(t) method ([Livak and Schmittgen, 2001]).
After treatment, the cells or tissues were collected and washed with PBS. Membrane protein extracts were obtained with Membrane Protein Extraction Kit (Thermo Fisher Scientific Inc, United States), according to the manufacturer’s protocol. Protein concentrations were quantified by using the BCA Protein Assay kit (Beyotime, Shanghai, China). Equal amounts of protein were resolved by SDS-PAGE on a 10% polyacrylamide gel and transferred onto a polyvinylidene fluoride membrane. […]

Structure (SMILES): CO[C@@H]1[C@@H](OC(N)=O)[C@@H](O)[C@H](Oc2ccc3c(O)c(NC(=O)c4ccc(O)c(CC=C(C)C)c4)c(=O)oc3c2C)OC1(C)C [NOVO, novobiocin]
- permeability of CAP in the Ussing chamber experiment ([1]; NOVO concentration higher than 100 μM, data not shown): increased
- Papp of CAP ([1]; colon, CAP + 5 μM inhibitor): 8.28 ± 2.55 ×10^-6, cm⋅s^-1
- fold-inhibition factor of CAP Papp ([1]; colon, CAP + 5 μM inhibitor): 2.41 fold
- Papp of CAP ([1]; colon, CAP + 10 μM inhibitor): 6.05 ± 1.85 ×10^-6, cm⋅s^-1
- fold-inhibition factor of CAP Papp ([1]; colon, CAP + 10 μM inhibitor): 3.30 fold
- Papp of CAP ([1]; colon, CAP + 25 μM inhibitor): 5.65 ± 2.04 ×10^-6, cm⋅s^-1
- fold-inhibition factor of CAP Papp ([1]; colon, CAP + 25 μM inhibitor): 3.54 fold
- Papp of CAP ([1]; colon, CAP + 50 μM inhibitor): 9.79 ± 2.20 ×10^-6, cm⋅s^-1
- fold-inhibition factor of CAP Papp ([1]; colon, CAP + 50 μM inhibitor): 2.04 fold
- Papp of CAP ([1]; ileum, CAP + 5 μM inhibitor): 3.40 ± 0.76 ×10^-6, cm⋅s^-1
- fold-inhibition factor of CAP Papp ([1]; ileum, CAP + 5 μM inhibitor): 2.17 fold
- Papp of CAP ([1]; ileum, CAP + 10 μM inhibitor): 2.17 ± 0.58 ×10^-6, cm⋅s^-1
- fold-inhibition factor of CAP Papp ([1]; ileum, CAP + 10 μM inhibitor): 3.40 fold
- Papp of CAP ([1]; ileum, CAP + 25 μM inhibitor): 4.02 ± 0.42 ×10^-6, cm⋅s^-1
- fold-inhibition factor of CAP Papp ([1]; ileum, CAP + 25 μM inhibitor): 1.83 fold
- Papp of CAP ([1]; ileum, CAP + 50 μM inhibitor): 5.23 ± 0.25 ×10^-6, cm⋅s^-1
- fold-inhibition factor of CAP Papp ([1]; ileum, CAP + 50 μM inhibitor): 1.41 fold
- Papp of CAP ([1]; jejunum, CAP + 5 μM inhibitor): 1.96 ± 0.25 ×10^-6, cm⋅s^-1
- fold-inhibition factor of CAP Papp ([1]; jejunum, CAP + 5 μM inhibitor): 1.60 fold
- Papp of CAP ([1]; jejunum, CAP + 10 μM inhibitor): 1.36 ± 0.47 ×10^-6, cm⋅s^-1
- fold-inhibition factor of CAP Papp ([1]; jejunum, CAP + 10 μM inhibitor): 2.31 fold
- Papp of CAP ([1]; jejunum, CAP + 25 μM inhibitor): 1.60 ± 0.38 ×10^-6, cm⋅s^-1
- fold-inhibition factor of CAP Papp ([1]; jejunum, CAP + 25 μM inhibitor): 1.97 fold
- Papp of CAP ([1]; jejunum, CAP + 50 μM inhibitor): 2.11 ± 0.04 ×10^-6, cm⋅s^-1
- fold-inhibition factor of CAP Papp ([1]; jejunum, CAP + 50 μM inhibitor): 1.49 fold
- Cell Survival ([2]; 1.25 μM, incubation 12 h): 1.208 ± 0.172
- Cell Survival ([2]; 1.25 μM, incubation 24 h): 1.353 ± 0.192
- Cell Survival ([2]; 2.5 μM, incubation 12 h): 1.139 ± 0.157
- Cell Survival ([2]; 2.5 μM, incubation 24 h): 1.326 ± 0.252
- Cell Survival ([2]; 5 μM, incubation 12 h): 1.118 ± 0.201
- Cell Survival ([2]; 5 μM, incubation 24 h): 1.282 ± 0.203
- Cell Survival ([2]; 10 μM, incubation 12 h): 1.156 ± 0.135
- Cell Survival ([2]; 10 μM, incubation 24 h): 0.954 ± 0.012
- Cell Survival ([2]; 20 μM, incubation 12 h): 1.113 ± 0.102
- Cell Survival ([2]; 20 μM, incubation 24 h): 0.744 ± 0.232
- Cell Survival ([2]; 40 μM, incubation 12 h): 1.018 ± 0.091
- Cell Survival ([2]; 40 μM, incubation 24 h): 0.752 ± 0.291
- Cell Survival ([2]; 50 μM, incubation 12 h): 1.065 ± 0.125
- Cell Survival ([2]; 50 μM, incubation 24 h): 0.668 ± 0.124
- concentration up to which more than 80% of the cells were viable ([2]; both IEC-6/TRPV1+ and IEC-6/TRPV1-, incubated 24 h): 10 µM
- Cell Survival ([3]; 1.25 μM, incubation 12 h): 1.261 ± 0.512
- Cell Survival ([3]; 1.25 μM, incubation 24 h): 1.192 ± 0.099
- Cell Survival ([3]; 2.5 μM, incubation 12 h): 1.063 ± 0.361
- Cell Survival ([3]; 2.5 μM, incubation 24 h): 1.113 ± 0.177
- Cell Survival ([3]; 5 μM, incubation 12 h): 1.128 ± 0.274
- Cell Survival ([3]; 5 μM, incubation 24 h): 0.952 ± 0.134
- Cell Survival ([3]; 10 μM, incubation 12 h): 1.101 ± 0.101
- Cell Survival ([3]; 10 μM, incubation 24 h): 0.861 ± 0.088
- Cell Survival ([3]; 20 μM, incubation 12 h): 1.011 ± 0.194
- Cell Survival ([3]; 20 μM, incubation 24 h): 0.749 ± 0.138
- Cell Survival ([3]; 40 μM, incubation 12 h): 1.051 ± 0.214
- Cell Survival ([3]; 40 μM, incubation 24 h): 0.647 ± 0.015
- Cell Survival ([3]; 50 μM, incubation 12 h): 1.123 ± 0.293
- Cell Survival ([3]; 50 μM, incubation 24 h): 0.591 ± 0.261
- TRPV1 protein expression in rat intestine ([4]; 5 μM NOVO p.o., western blot): not sufficient to attenuate TRPV1 protein expression
- TRPV1 mRNA level in rat intestine ([4]; 14 days p.o. NOVO 5-50 μM twice per day, jejunum, ileum, colon, Figure 2D): decreased markedly
- TRPV1 protein level in rat intestine ([4]; 14 days p.o. NOVO twice per day, western blot, Figure 2E): decreased the TRPV1 protein level in a dose-dependent manner

Structure (SMILES): O=C(Nc1ccccc1Br)N[C@@H]1CCN(c2ccc(C(F)(F)F)cn2)C1 [SB-705498]
- Cell Survival ([2]; 0.001 μM, incubation 12 h): 1.114 ± 0.190
- Cell Survival ([2]; 0.001 μM, incubation 24 h): 1.018 ± 0.061
- Cell Survival ([2]; 0.01 μM, incubation 12 h): 1.101 ± 0.236
- Cell Survival ([2]; 0.01 μM, incubation 24 h): 1.129 ± 0.185
- Cell Survival ([2]; 0.1 μM, incubation 12 h): 1.274 ± 0.223
- Cell Survival ([2]; 0.1 μM, incubation 24 h): 1.118 ± 0.139
- Cell Survival ([2]; 1 μM, incubation 12 h): 1.203 ± 0.139
- Cell Survival ([2]; 1 μM, incubation 24 h): 1.052 ± 0.100
- Cell Survival ([2]; 5 μM, incubation 12 h): 1.276 ± 0.156
- Cell Survival ([2]; 5 μM, incubation 24 h): 0.976 ± 0.098
- Cell Survival ([3]; 0.001 μM, incubation 12 h): 1.261 ± 0.268
- Cell Survival ([3]; 0.001 μM, incubation 24 h): 0.999 ± 0.082
- Cell Survival ([3]; 0.01 μM, incubation 12 h): 1.158 ± 0.144
- Cell Survival ([3]; 0.01 μM, incubation 24 h): 0.968 ± 0.218
- Cell Survival ([3]; 0.1 μM, incubation 12 h): 1.169 ± 0.333
- Cell Survival ([3]; 0.1 μM, incubation 24 h): 0.962 ± 0.184
- Cell Survival ([3]; 1 μM, incubation 12 h): 1.001 ± 0.229
- Cell Survival ([3]; 1 μM, incubation 24 h): 0.933 ± 0.077
- Cell Survival ([3]; 5 μM, incubation 12 h): 0.931 ± 0.296
- Cell Survival ([3]; 5 μM, incubation 24 h): 0.907 ± 0.039
